# Assays:
# Assay in all cases: relative viability (nuclei count vs DMSO), 5 days (fraction); higher = more cells survive
# [1] = compound: COC1=CC(c2cc3ccccc3[nH]2)=N/C1=C\c1[nH]c(C)cc1C [Obatoclax] + COc1cc2c(Oc3ccc(NC(=O)C4(C(=O)Nc5ccc(F)cc5)CC4)cc3F)ccnc2cc1OCCCN1CCOCC1 [Foretinib] (partner 0.25 µM)
# Outline: (§1)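 Lung cancer cell lines in 1536-well plates got either a single drug or a fixed anchor-drug dose together with five library-drug doses (not always all listed) in √10 steps, by pin tool, on the day after seeding. Nuclei were counted after 5 days, and relative viability is the treated-to-vehicle ratio of nuclei counts. Values are medians of duplicate plates.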
# [2] = compound: COC1=CC(c2cc3ccccc3[nH]2)=N/C1=C\c1[nH]c(C)cc1C [Obatoclax] + CS(=O)(=O)CCNCc1ccc(-c2ccc3ncnc(Nc4ccc(OCc5cccc(F)c5)c(Cl)c4)c3c2)o1 [Lapatinib] (partner 2 µM)
# Outline: as §1
# [3] = compound: COC1=CC(c2cc3ccccc3[nH]2)=N/C1=C\c1[nH]c(C)cc1C [Obatoclax] + NC(=O)Nc1cc(-c2cccc(F)c2)sc1C(=O)N[C@H]1CCCNC1 [AZD7762] (partner 0.2 µM)
# Outline: as §1
# [4] = compound: COC1=CC(c2cc3ccccc3[nH]2)=N/C1=C\c1[nH]c(C)cc1C [Obatoclax] + O=C(CCCCCCC(=O)Nc1ccccc1)NO [Vorinostat] (partner 1 µM)
# Outline: as §1
Cell Line,relative viability ([1]; first compound 0.01 µM),relative viability ([1]; first compound 0.03162 µM),relative viability ([1]; first compound 0.1 µM),relative viability ([1]; first compound 0.3162 µM),relative viability ([1]; first compound 1 µM),relative viability ([2]; first compound 0.01 µM),relative viability ([2]; first compound 0.03162 µM),relative viability ([2]; first compound 0.1 µM),relative viability ([2]; first compound 0.3162 µM),relative viability ([2]; first compound 1 µM),relative viability ([3]; first compound 0.01 µM),relative viability ([3]; first compound 0.03162 µM),relative viability ([3]; first compound 0.1 µM),relative viability ([3]; first compound 0.3162 µM),relative viability ([3]; first compound 1 µM),relative viability ([4]; first compound 0.01 µM),relative viability ([4]; first compound 0.03162 µM),relative viability ([4]; first compound 0.1 µM),relative viability ([4]; first compound 0.3162 µM),relative viability ([4]; first compound 1 µM)
201T,1.09,1.12,1.1,1.09,0.768,1.08,0.789,0.94,1.01,0.97,0.608,0.601,0.579,0.614,0.702,0.954,0.834,0.968,0.959,1.06
A549,0.958,0.947,0.979,0.959,0.764,0.933,1.1,0.997,0.966,0.125,,,,,,,,,,
A-427,1.16,0.989,1.01,0.972,0.984,1.08,0.884,1.03,1.09,0.992,0.746,0.757,0.496,0.467,0.441,0.839,0.836,0.741,0.835,0.664
ABC-1,1.11,1.15,1.23,1.06,0.975,0.87,1.15,1.25,1.04,1.33,0.639,0.749,,0.817,0.839,1.25,1.08,0.869,1.17,0.933
BEN,0.864,0.614,,0.631,0.678,0.726,0.696,0.305,0.792,0.698,0.762,0.607,0.544,0.734,0.704,0.594,0.486,0.521,0.556,0.621
CAL-12T,1.11,1.16,1.09,0.343,0.134,0.609,0.733,0.755,0.392,0.287,0.616,0.554,0.531,0.518,0.294,0.847,0.883,1.05,0.521,0.142
COR-L23,0.878,1.05,0.927,0.51,0.323,0.954,0.957,0.714,0.254,0.199,,,,,,0.562,0.507,0.42,0.166,0.18
COR-L 105,1.01,1.19,1.05,0.534,0.454,0.368,0.318,0.369,0.294,0.252,,,,,,0.837,0.905,0.885,0.725,0.445
Calu-6,0.901,0.739,0.927,0.919,0.321,1.03,1.09,1.04,0.842,0.244,,,,,,,,,,
ChaGo-K-1,0.83,0.947,0.913,0.901,1.03,,,,,,0.892,0.88,0.831,0.881,0.914,0.756,0.587,0.637,0.742,0.795
EBC-1,0.102,0.112,0.119,0.119,0.113,0.204,0.213,0.227,0.182,0.189,,,,,,,,,,
EKVX,0.911,0.76,0.427,0.752,1.09,0.208,0.19,0.215,0.199,0.189,0.614,,0.348,0.756,0.706,0.747,0.592,0.765,0.725,0.649
EMC-BAC-2,0.987,1.03,1.08,0.864,0.788,0.878,0.908,0.886,0.74,0.897,1.12,1.11,0.963,1.02,0.874,0.437,0.358,,0.446,0.405
EPLC-272H,0.735,0.577,0.769,0.619,0.499,0.942,0.909,0.458,0.913,0.883,0.236,0.145,0.155,0.192,0.229,0.567,0.561,0.399,0.175,0.176
H3255,0.826,0.802,0.891,1.05,0.996,0.51,0.244,0.327,0.256,0.315,0.874,0.848,0.725,0.785,0.762,0.975,0.719,,0.823,0.858
HARA,0.966,0.93,0.91,0.935,1,0.816,0.752,0.667,0.69,0.297,0.379,0.237,0.397,0.173,0.244,0.553,0.392,0.566,0.441,0.605
HCC-15,1.04,1.05,0.846,0.912,0.857,0.854,0.801,0.747,0.723,0.581,1.04,1.34,1.21,1.25,1.36,0.875,0.815,0.83,0.747,0.786
HCC-44,,,,,,1.08,0.891,0.955,0.876,0.37,0.95,1.03,1.14,1.01,0.978,1.04,1.06,1.05,1.1,1.03
HCC-78,0.532,0.53,0.608,0.553,0.59,0.937,0.64,,0.579,0.844,0.745,0.669,0.694,0.633,0.596,0.384,0.441,0.551,0.438,0.527
HCC-366,0.932,0.922,0.916,0.549,0.919,1.02,1.05,0.921,0.636,0.379,0.289,0.218,0.184,0.227,0.243,0.352,0.398,0.312,0.353,0.191
IA-LM,1.17,1.18,1.03,0.624,0.0739,0.631,0.872,0.454,0.135,0.114,,,,,,0.993,0.89,1.05,0.905,1.11

Cell Line,relative viability ([1]; first compound 0.01 µM),relative viability ([1]; first compound 0.03162 µM),relative viability ([1]; first compound 0.1 µM),relative viability ([1]; first compound 0.3162 µM),relative viability ([1]; first compound 1 µM),relative viability ([2]; first compound 0.01 µM),relative viability ([2]; first compound 0.03162 µM),relative viability ([2]; first compound 0.1 µM),relative viability ([2]; first compound 0.3162 µM),relative viability ([2]; first compound 1 µM),relative viability ([3]; first compound 0.01 µM),relative viability ([3]; first compound 0.03162 µM),relative viability ([3]; first compound 0.1 µM),relative viability ([3]; first compound 0.3162 µM),relative viability ([3]; first compound 1 µM),relative viability ([4]; first compound 0.01 µM),relative viability ([4]; first compound 0.03162 µM),relative viability ([4]; first compound 0.1 µM),relative viability ([4]; first compound 0.3162 µM),relative viability ([4]; first compound 1 µM)
LCLC-103H,0.792,0.698,0.778,0.668,0.8,,,,,,0.766,0.727,0.682,0.871,0.917,0.791,0.676,0.715,0.756,0.799
NCI-H441,0.877,0.925,1.05,0.639,0.612,,,,,,1.33,1.28,1.16,0.941,1.08,0.768,0.837,0.728,0.733,0.645
NCI-H520,0.825,0.727,0.944,0.668,0.609,0.805,0.821,0.879,0.493,0.22,,,,,,0.685,0.712,0.764,0.542,0.315
NCI-H522,,,,,,,,,,,0.823,0.664,0.915,0.92,0.883,0.891,0.794,0.793,0.967,0.973
NCI-H661,0.977,1.03,1.05,0.936,0.763,0.421,0.47,0.539,0.474,0.611,,,,,,0.734,0.789,0.81,0.711,0.552
NCI-H1299,1.08,1.12,1.08,1.08,1.05,0.911,0.977,0.932,0.881,0.308,,,,,,,,,,
NCI-H1563,0.903,0.91,1.04,0.824,0.806,0.902,1.16,0.955,0.794,0.711,,,,,,,,,,
NCI-H1623,0.95,0.81,0.984,0.839,0.896,,,,,,,,,,,,,,,
NCI-H1648,,,,,,,,,,,0.701,0.754,1,0.77,0.886,0.557,0.479,0.739,0.357,0.822
NCI-H1650,1.12,1.06,1.18,0.91,0.558,0.849,0.657,0.698,0.418,0.302,,,,,,0.494,0.661,0.61,0.417,0.301
NCI-H1703,0.379,0.309,0.301,0.382,0.303,1,1.46,1.1,0.437,0.405,0.135,,,0.138,0.126,,,,,
NCI-H1792,,,,,,0.945,0.796,,0.869,0.885,0.732,0.482,0.513,0.527,0.213,,,,,
NCI-H2009,1.24,1.25,1.23,0.477,0.333,0.92,1,0.447,0.234,0.222,,,,,,0.723,0.73,0.634,0.502,0.251
NCI-H2023,0.944,0.841,0.804,0.804,0.316,1.08,0.755,0.761,0.622,0.122,,,,,,0.489,0.613,0.632,0.553,0.376
NCI-H2228,0.851,0.867,0.861,0.759,0.511,1.04,0.826,0.986,0.627,0.335,,,,,,0.564,0.83,0.859,0.654,0.164
NCI-H2342,1.05,0.947,1.09,1.04,1.03,,,,,,0.614,0.392,0.51,0.363,0.389,0.767,0.717,0.859,0.874,0.958
SK-LU-1,0.775,0.855,0.804,0.409,0.357,0.75,0.87,0.61,0.637,0.621,,,,,,0.833,0.827,0.723,0.671,0.441
SK-MES-1,0.935,1.03,0.831,0.833,0.867,0.457,0.458,0.509,0.519,0.519,,,,,,1.06,1.11,0.905,0.907,0.301
SW 900,0.895,0.743,0.759,0.536,0.738,,,,,,0.588,0.489,0.671,0.46,0.519,0.493,0.489,0.509,0.389,0.372
SW 1573,0.866,0.732,0.816,0.81,0.6,1.06,1.16,1.31,1.13,0.559,,,,,,0.791,1.04,0.792,0.429,0.169
UMC-11,1.07,1.08,1.05,0.716,0.382,1.06,1.04,0.973,0.613,0.346,,,,,,0.39,0.439,0.375,0.407,0.288

# From the supplement of paper PMC10307832
